Laboratory results from patent publication US12263248B2, “Compounds and compositions for intracellular delivery of therapeutic agents” (ModernaTX, Inc., priority 2018, dated 2025).

Legend:
[1] = Encapsulation efficiency of RNA (QUANT-IT RIBOGREEN RNA assay); format: physicochemical; conditions: Table 1A
In short: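 RiboGreen fluorescence (ex ~480, em ~520 nm) compared between intact samples and Triton X-100-lysed samples after 15 min at 37 °C in TE buffer, pH 7.5. Percent free RNA is the blank-corrected intact/disrupted ratio.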

[2] = Particle size and polydispersity index of nanoparticle compositions (Zetasizer Nano ZS); format: physicochemical; conditions: Table 1A; for Size (nm): lipid:DSPC:cholesterol:PEG-DMG 50:10:38.5:1.5 mol %
In short: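 Values are size and PDI readings from a Zetasizer Nano ZS. Measurements are taken in 1×PBS; zeta potential, by contrast, uses 15 mM PBS.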

[3] = system: luciferase (Luc) mRNA; test: Luc expression, whole body bioluminescence after intravenous administration to mice; format: in vivo; conditions: for Lipid/MC3 AUC / AUC (p/s * h): Table 3D, intravenous; for AUC (p/s * h) / AUC (h * p/s): Luc; for Total Flux 3 hours / Total Flux 6 hours / Total Flux 24 hours: mice, i.v., 0.5 mg/kg, Luc mRNA; for Fold increase in total body Luc Flux relative to MC3 at 6 h: Table 3A; for 6 h Lipid/MC3 Avg. Luc Expression / Fold increase AUC Lipid/MC3 / AUC (h * p/s): Table 3C
In short: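 Bioluminescence, read as region-of-interest total flux at 3, 6 and 24 h, followed a single 0.5 mg/kg intravenous dose of Luc mRNA-loaded nanoparticles in mice (n=6). Luciferin substrate (200 μL, 15 mg/mL in PBS) was injected intraperitoneally into CD-1 mice 15 minutes ahead of each imaging point.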

[4] = Apparent (surface) pKa of the LNP formulation (TNS assay); format: physicochemical; conditions: Table 1A
In short: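 Fluorescence of TNS probe added to LNP samples (mRNA 0.04 mg/mL) was read across 21 buffers of pH about 3-12, triplicate per pH. The inflection point of the sigmoidal fluorescence-vs-pH curve, […], gives apparent pKa; method validated in 1× PBS and Tris/sucrose buffer.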

[5] = system: luciferase (Luc) mRNA; test: Luc expression in liver, lung, spleen and femur 6 hours after intravenous administration; format: in vivo; conditions: mice, 0.5 mpk; for Total Flux Liver / Total Flux Lung / Total Flux Spleen: intravenous; for Flux in the spleen: i.v., in words
In short: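 LNP-formulated mRNA given IV to mice (n=3) at 0.5 mpk; at 6 h, bioluminescence imaged ex vivo 15 min after IP D-luciferin (15 mg/mL, 200 μL), organs imaged within 25 min. Values are total flux by region of interest.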

CCCCCCCCC(CCCCCCCC)OC(=O)CCCCCCCN(CCO)CCCCCCCC(=O)OC(C)(C)C [Compound 155, tert-Butyl 8-((8-(heptadecan-9-yloxy)-8-oxooctyl)(2-hydroxyethyl)amino)octanoate]
EE (%) [1]: 37.36% | PDI [2]: 0.240 | Size (nm) [2]: 208.3 nm | Lipid/MC3 AUC [3]: 0.66 | AUC (p/s * h) [3]: 1.266E+011 p/s * h | Total Flux 3 hours [3]: 2.49E+09 | Total Flux 6 hours [3]: 1.15E+10 | Total Flux 24 hours [3]: 1.99E+08 | pKa [4]: 6.576 | Total Flux Liver [5]: 8.58E+08 | Total Flux Lung [5]: 1.00E+07 | Total Flux Spleen [5]: 2.77E+08

CCCCCCCCC(CCCCCCCC)OC(=O)CCCCCCCN(CCO)CCCC(=O)OC1CCC(CCCCC)CC1 (centres unmarked) [Compound 67, Heptadecan-9-yl 8-((2-hydroxyethyl)(4-oxo-4-((4-pentylcyclohexyl)oxy)butyl)amino)octanoate]
EE (%) [1]: 98% | PDI [2]: 0.13 | Size (nm) [2]: 77 nm | Fold increase in total body Luc Flux relative to MC3 at 6 h ([3]; i.v. administration): 2.08 | Total Flux 3 hours [3]: 4.24E+10 | Total Flux 6 hours [3]: 4.62E+10 | Total Flux 24 hours [3]: 4.51E+08 | pKa [4]: 6.38 | Total Flux Liver [5]: 3.60E+09 | Total Flux Lung [5]: 1.68E+07 | Total Flux Spleen [5]: 2.55E+07

CCCCCCCCC(CCCCCCCC)OC(=O)CCCCCCCN(CCO)CCCC(=O)OCC1CC1CCCCCC (centres unmarked) [Compound 55, heptadecan-9-yl 8-((4-((2-hexylcyclopropyl)methoxy)-4-oxobutyl)(2-hydroxyethyl)amino)octanoate]
EE (%) [1]: 97.03% | PDI [2]: 0.16 | Size (nm) [2]: 91.6 nm | Fold increase in total body Luc Flux relative to MC3 at 6 h ([3]; i.v. administration): 1.52 | flux measured at 6 h relative to the MC3 formulation ([3]; i.v. administration, in words): higher flux than MC3 formulations | Total Flux 3 hours [3]: 5.07E+10 | Total Flux 6 hours [3]: 1.68E+10 | Total Flux 24 hours [3]: 4.06E+08 | pKa [4]: 6.44 | Total Flux Liver [5]: 1.92E+09 | Total Flux Lung [5]: 7.02E+06 | Total Flux Spleen [5]: 2.63E+07

CCCCCCCCC(CCCCCCCC)OC(=O)CCCCCCCN(CCO)CCCCCCCC(=O)OC(CCCCCCCC)C1CC1 (centres unmarked) [Compound 65, 1-Cyclopropylnonyl 8-((8-(heptadecan-9-yloxy)-8-oxooctyl)(2-hydroxyethyl)amino)octanoate]
EE (%) [1]: 98.2% | PDI [2]: 0.12 | Size (nm) [2]: 63.9 nm | Fold increase in total body Luc Flux relative to MC3 at 6 h ([3]; i.v. administration): 3.16 | Total Flux 3 hours [3]: 6.56E+10 | Total Flux 6 hours [3]: 7.01E+10 | Total Flux 24 hours [3]: 7.50E+08 | pKa [4]: 6.36 | Total Flux Liver [5]: 9.56E+09 | Total Flux Lung [5]: 3.79E+07 | Total Flux Spleen [5]: 6.57E+07

CCCCCCCCC(CCC)OC(=O)CCCN(CCO)CCCCCCCC(=O)OC(CCCCCCCC)CCCCCCCC (centres unmarked) [Compound 74, Heptadecan-9-yl 8-((4-(dodecan-4-yloxy)-4-oxobutyl)(2-hydroxyethyl)amino)octanoate]
EE (%) [1]: 97% | PDI [2]: 0.15 | Size (nm) [2]: 65.6 nm | Fold increase in total body Luc Flux relative to MC3 at 6 h ([3]; i.v. administration): 1.005 | Total Flux 3 hours [3]: 3.27E+10 | Total Flux 6 hours [3]: 2.23E+10 | Total Flux 24 hours [3]: 2.75E+08 | pKa [4]: 6.08 | Total Flux Liver [5]: 1.99E+09 | Total Flux Lung [5]: 6.93E+06 | Total Flux Spleen [5]: 2.26E+07

CCCCCCCCC(CCCCCCCC)OC(=O)CCCCCCCN(CCO)CCCCCC(=O)N(C)CCCCCCCC [Compound 146, Heptadecan-9-yl 8-((2-hydroxyethyl)(6-(methyl(octyl)amino)-6-oxohexyl)amino)octanoate]
EE (%) [1]: 91.94% | PDI [2]: 0.210 | Size (nm) [2]: 97.0 nm | 6 h Lipid/MC3 Avg. Luc Expression ([3]; i.v. administration): 0.011 | Fold increase AUC Lipid/MC3 ([3]; i.v. administration): 0.013 | AUC (h * p/s) ([3]; i.v. administration): 1.04E+09 h * p/s | Total Flux 3 hours [3]: 9.48E+07 | Total Flux 6 hours [3]: 8.39E+07 | Total Flux 24 hours [3]: 2.30E+06 | pKa [4]: 7.78 | Total Flux Liver [5]: 7.24E+06 | Total Flux Lung [5]: 3.88E+06 | Total Flux Spleen [5]: 5.11E+07

CCCCCCCCCOC(=O)CCCCCCCN(CCO)CCCCCCCC(=O)OC1CCC(C2CCCCC2)CC1 (centres unmarked) [Compound 80, [1,1′—Bi(cyclohexan)]-4-yl 8-((2-hydroxyethyl)(8-(nonyloxy)-8-oxooctyl)amino)octanoate]
EE (%) [1]: 90.7% | PDI [2]: 0.19 | Size (nm) [2]: 118 nm | Total Flux 3 hours [3]: 2.76E+08 | Total Flux 6 hours [3]: 3.26E+08 | Total Flux 24 hours [3]: 1.54E+07 | pKa [4]: 7.52 | Total Flux Liver [5]: 1.09E+07 | Total Flux Lung [5]: 8.97E+04 | Total Flux Spleen [5]: 4.71E+06

CCCCCCCCC(CCCCCCCC)OC(=O)CCCCCCCN(C)CCCCCCCC(=O)OC(CCCCCCCC)CCCCCCCC [Compound 124, Di(heptadecan-9-yl) 8,8′-(methylazanediyl)dioctanoate]
EE (%) [1]: 97.7% | PDI [2]: 0.1 | Size (nm) [2]: 61.3 nm | Total Flux 3 hours [3]: 6.62E+07 | Total Flux 6 hours [3]: 3.91E+09 | Total Flux 24 hours [3]: 5.13E+06 | pKa [4]: 5.89 | Flux in the spleen [5]: lowest | Total Flux Liver [5]: 8.46E+06 | Total Flux Lung [5]: 5.67E+04 | Total Flux Spleen [5]: 8.06E+04

CCCCCCCCOP(=O)(OCCCCCCCC)OCCCCCCCN(CCO)CCCCCCCC(=O)OC(C)CCCCCCCC (centres unmarked) [Compound 132, Decan-2-yl 8-((7-((bis(octyloxy)phosphoryl)oxy)heptyl)(2-hydroxyethyl)amino)octanoate]
EE (%) [1]: 30.77% | PDI [2]: 0.180 | Size (nm) [2]: 298.0 nm | 6 h Lipid/MC3 Avg. Luc Expression ([3]; i.v. administration): 0.187 | Fold increase AUC Lipid/MC3 ([3]; i.v. administration): 0.212 | AUC (h * p/s) ([3]; i.v. administration): 1.75E+10 h * p/s | Total Flux 3 hours [3]: 1.77E+09 | Total Flux 6 hours [3]: 1.36E+09 | Total Flux 24 hours [3]: 5.31E+07 | pKa [4]: 7.34 | Total Flux Liver [5]: 1.49E+08 | Total Flux Lung [5]: 1.39E+07 | Total Flux Spleen [5]: 3.37E+08

CCCCCCCCCOC(=O)CCCCCCCN(CCO)CCCCCCC/C=C\C(CCCCCCCC)CCCCCCCC [Compound 152, Nonyl (Z)-8-((2-hydroxyethyl)(10-octyloctadec-8-en-1-yl)amino)octanoate]
EE (%) [1]: 99.29% | PDI [2]: 0.072 | Size (nm) [2]: 62.6 nm | Lipid/MC3 AUC [3]: 0.15 | AUC (p/s * h) [3]: 2.855E+010 p/s * h | Total Flux 3 hours [3]: 1.56E+09 | Total Flux 6 hours [3]: 2.45E+09 | Total Flux 24 hours [3]: 4.95E+07 | pKa [4]: 6.465 | Total Flux Liver [5]: 1.43E+08 | Total Flux Lung [5]: 3.16E+05 | Total Flux Spleen [5]: 6.63E+06

CCCCCCCCCOC(=O)CCCCCCCN(CCO)CCCCCCCC(=O)OC(CCC)CCCCCCCC (centres unmarked) [Compound 34, dodecan-4-yl 8-((2-hydroxyethyl)(8-(nonyloxy)-8-oxooctyl)amino) octanoate]
EE (%) [1]: 92.52% | PDI [2]: 0.14 | Size (nm) [2]: 133.8 nm | Fold increase in total body Luc Flux relative to MC3 at 6 h ([3]; i.v. administration): 0.34 | Total Flux 3 hours [3]: 1.06E+10 | Total Flux 6 hours [3]: 1.48E+10 | Total Flux 24 hours [3]: 6.69E+08 | pKa [4]: 6.64 | Flux in the spleen [5]: highest | Total Flux Liver [5]: 2.08E+09 | Total Flux Lung [5]: 9.49E+06 | Total Flux Spleen [5]: 2.40E+08
